Entries after “also recorded” stand apart in the source; their conditions may differ.

Data on two compounds can be found in patent US20250035641A1, “COMPOSITIONS AND METHODS RELATED TO PROTEIN LABELING” (The Chinese University of Hong Kong, priority 2023, published 2025).

Common to all, as to type: cell-based
Test [1] has as its target T1, HTN-BRD4 (Homo sapiens, UniProt O60885+P62942, F37V).
T1 construct: HaloTag fragment; expressed in transfected cells; host or cells: HEK293T
The test is described as follows: IP-WB of HTN-BRD4 O-GlcNAcylation (RL2) in HEK293T cells co-expressing fOGT. The conditions noted are these: for region of induced HTN-BRD4 O-GlcNAcylation: HTN-BRD4:fOGT=1:0.05, truncated/mutant constructs. As for the experimental part: We next assess their potency in inducing HTN-BRD4 O-GlcNAcylation in cell. […]
For each IP reaction, 2.2×10^6 HEK293T cells were seed in 10 cm dish. After cells attached, transfection reagents and plasmids were prepared and added in DMEM. After 24 h transfection, media were replaced by fresh warm complete media with DMSO or probes. For washout study, after 4 h treatment, media with DMSO or OGTAC-4 (500 nM) were replaced by fresh media with DMSO or AP1867 (50 μM) for further incubation. After certain time of OGTACs treatment, cells were collected by cold PBS and lysed by 200 μL complete IP lysis buffer. The lysate was incubated on ice for 20 min, spun down at 14,000 RPM at 4° C. for 15 mins, and the supernatant were collected for bicinchoninic acid (BCA) assay and normalized to a final 2 mg/mL. For input, 20 μL of diluted sample was reacted with equal volume of 10 μM TMR ligand in IP lysis buffer and rotate gently at RT for 15 mins. The remaining samples were subjected to protein A/G magnetic beads (MedChemExpress, HY-K0202), which pre-binding with protein target protein antibody. For samples for LC-MS/MS or HTN-BRD4 mutant constructs. Halo-Trap Magnetic Agarose (Proteintech, otma) was used to incubate with protein lysates. After gentle rotation at 4° C. for at least 16 h, the beads were washed with IP lysis buffer and boiled in 40 μL 2×SDS-loading buffer (Biorad #1610747) for 5 mins to elute proteins from beads. Eluted samples were directly subjected into WB analysis.
(§1) In general, cells (from 12 well plate) were lysed by 80 μl RIPA lysis buffer (Thermo Scientic 89901) supplemented with 20 μM OGA inhibitor (Thaimet G, Bidepharm BD571819) and 100X protease inhibitor (MedChemExpress, HY-K0010), incubated on ice for 20 min, spun down at 14,000 RPM at 4° C. for 15 mins, and the supernatant were collected for bicinchoninic acid (BCA) assay and normalizedeto a final 2 mg/mL concentration. About 30 μg of protein samples were loaded for sodium dodecyl sulfatepolyacrylamide gel electrophoresis (SDS-PADE) and blotted with indicated antibodies.

Test [2] deals with cellular global O-GlcNAc level. The experiment in a line: Global (pan-RL2) O-GlcNAc level by immunoblot.
Source text: After illustrating the potency and generality of the OGTAC strategy, we then assessed its specificity towards the global O-GlcNAc proteome. We quantified the total pan-O-GlcNAc level (except for the specific band for target POI) using immunoblotting. For well-validated OGT substrates such as CK2α relatively low fOGT protein amount is sufficient to facilitate the inducing effect of our OGTAC-1. […] HTN-BRD4:fOGT=1:0.01 condition is not sufficient for OGTAC to exert inducing effects even though ternary complex was formed (FIG. 15). We hypothesize that an optimal threshold of OGT protein levels is required for efficient O-GlcNAc transfer to BRD4. To address the trade-off between potency and specificity on BRD4, we developed a truncated fOGT system. The tetratricopeptide repeat (TPR) domain of fOGT is responsible for substrate recognition; truncation of TPR domain can reduce its activity towards protein substrates. We therefore constructed and compared several truncated fOGT (tfOGT) plasmids.
as §1
Background: In western blotting, separated proteins are transferred to a membrane and probed.

Test [3] has as its system endogenous CK2α. The experiment in a line: Chemoenzymatic labelling and mass-shift assay, endogenous CK2α. The conditions noted are these: OGTAC-1 treatment.
The target of test [4] is HTN-CK2α (Homo sapiens, UniProt P68400). The test is described as follows: Chemoenzymatic labelling and mass-shift assay, HTN-CK2α. Details: expressed in transfected cells; host or cells: HEK293T (A5, A6); HeLa (A8). The conditions noted are these: 1 μM. From the text: Ck2α is a well-studied OGT substrate.^17,25 Its Ser347 is conservatively O-GlcNAcylated and this modification was reported to affect its kinase activity.^16,17 We first co-expressed HTN-Ck2α and fOGT in HEK293T cells at different ratio and found the basal O-GlcNAcylation level of HTN-Ck2α was higher than what we detected in the case of HTN-BRD4. Therefore, a lower ratio of fOGT expression (1:100) was selected for the assessment of OGTAC potency (FIG. 9). […] The induction of specific O-GlcNAcylation on HTN-Ck2α was further confirmed by mass-shift assay. […] To validate the direct binding to both fOGT and HTN-Ck2α is critical, we exploited AP 1867 and rhodamine ligand, which bind to fOGT and HTN-Ck2α respectively, to co-treat with OGTAC-1.
Chain of HTN-CK2α (P68400 with tags, fused parts or gaps): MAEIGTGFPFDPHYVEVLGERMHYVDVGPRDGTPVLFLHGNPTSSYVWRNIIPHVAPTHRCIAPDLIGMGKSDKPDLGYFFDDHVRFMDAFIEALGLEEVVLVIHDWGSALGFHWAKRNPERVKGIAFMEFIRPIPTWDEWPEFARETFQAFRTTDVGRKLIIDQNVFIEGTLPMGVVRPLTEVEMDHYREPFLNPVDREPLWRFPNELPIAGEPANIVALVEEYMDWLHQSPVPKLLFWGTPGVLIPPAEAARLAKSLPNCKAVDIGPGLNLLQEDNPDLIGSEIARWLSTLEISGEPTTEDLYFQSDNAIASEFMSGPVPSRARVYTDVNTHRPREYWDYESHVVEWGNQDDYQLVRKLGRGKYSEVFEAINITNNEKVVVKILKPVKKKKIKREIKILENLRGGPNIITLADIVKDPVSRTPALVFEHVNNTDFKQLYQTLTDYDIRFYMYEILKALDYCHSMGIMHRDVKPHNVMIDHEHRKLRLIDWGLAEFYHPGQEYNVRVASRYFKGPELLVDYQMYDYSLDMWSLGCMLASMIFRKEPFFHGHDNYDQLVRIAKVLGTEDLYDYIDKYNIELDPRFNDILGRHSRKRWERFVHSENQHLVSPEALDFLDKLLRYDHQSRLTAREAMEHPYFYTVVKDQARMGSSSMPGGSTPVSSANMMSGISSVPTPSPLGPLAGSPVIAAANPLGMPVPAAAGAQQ
Chain of HTN-CK2α (P62942+O15294 fused P62942:F37V partner): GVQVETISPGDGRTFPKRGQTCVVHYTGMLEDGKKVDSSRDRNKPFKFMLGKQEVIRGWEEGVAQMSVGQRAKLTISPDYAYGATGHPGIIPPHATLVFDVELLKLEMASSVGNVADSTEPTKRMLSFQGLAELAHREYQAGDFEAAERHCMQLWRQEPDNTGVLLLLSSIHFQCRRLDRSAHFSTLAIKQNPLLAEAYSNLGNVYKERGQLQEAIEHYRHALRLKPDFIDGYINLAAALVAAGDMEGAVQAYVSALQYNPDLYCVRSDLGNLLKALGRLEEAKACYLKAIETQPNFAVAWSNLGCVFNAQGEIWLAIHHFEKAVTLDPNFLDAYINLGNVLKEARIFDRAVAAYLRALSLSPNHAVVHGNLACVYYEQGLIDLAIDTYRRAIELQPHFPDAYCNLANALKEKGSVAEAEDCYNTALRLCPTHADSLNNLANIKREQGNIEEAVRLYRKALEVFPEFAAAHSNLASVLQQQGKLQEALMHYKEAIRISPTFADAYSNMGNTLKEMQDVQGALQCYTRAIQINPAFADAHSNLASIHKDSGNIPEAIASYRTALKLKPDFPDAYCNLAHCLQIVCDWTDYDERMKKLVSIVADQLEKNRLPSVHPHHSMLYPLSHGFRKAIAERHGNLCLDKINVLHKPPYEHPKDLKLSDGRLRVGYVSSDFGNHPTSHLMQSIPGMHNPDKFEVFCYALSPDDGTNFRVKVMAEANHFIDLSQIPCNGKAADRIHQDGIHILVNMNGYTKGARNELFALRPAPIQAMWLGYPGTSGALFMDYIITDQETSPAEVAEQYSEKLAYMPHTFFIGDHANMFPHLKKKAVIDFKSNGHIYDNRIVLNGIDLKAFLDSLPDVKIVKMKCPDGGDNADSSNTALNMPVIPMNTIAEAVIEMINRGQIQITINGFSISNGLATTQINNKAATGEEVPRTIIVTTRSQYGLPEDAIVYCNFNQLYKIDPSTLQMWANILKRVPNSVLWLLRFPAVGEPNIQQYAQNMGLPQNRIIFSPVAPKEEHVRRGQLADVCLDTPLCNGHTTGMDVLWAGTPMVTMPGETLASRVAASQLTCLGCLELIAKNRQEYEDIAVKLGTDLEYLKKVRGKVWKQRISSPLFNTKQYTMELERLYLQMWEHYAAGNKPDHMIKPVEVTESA
For each chemoenzymatic labelling reaction. 2×10^5 HEK293T cells were seed to each well of 6 well plate. After cells attached, transfection reagents and plasmids were prepared and added in DMEM. After 24 h transfection, media were replaced by fresh warm complete media with DMSO or probes. […] The supernatant of lysate was then quantified by bicinchoninic acid (BCA) assay and normalized to 2 mg/mL with 1% SDS in buffer. […]

T1 sequence (P62942 whole entry F37V, stated change not applied, other chains not shown, the tested form may be a part): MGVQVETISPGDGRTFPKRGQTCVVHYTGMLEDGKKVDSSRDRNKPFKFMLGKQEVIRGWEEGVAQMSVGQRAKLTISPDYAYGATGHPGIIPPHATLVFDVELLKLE

Take `CC[C@H](C(=O)N1CCCC[C@H]1C(=O)O[C@H](CCc1ccc(OC)c(OC)c1)c1cccc(OCC(=O)NCCCCCCNC(=O)C[C@@H]2N=C(c3ccc(Cl)cc3)c3c(sc(C)c3C)-n3c(C)nnc32)c1)c1cc(OC)c(OC)c(OC)c1` [OGTAC-4, (R)-1-(3-(2-((6-(2-((S)-4-(4-chlorophenyl)-2,3,9-trimethyl-6H-thieno[3,2-f[]8 1,2,4]triazolo[4,3-a][1,4]diazepin-6-yl)acetamido)hexyl)amino)-2-oxoethoxy)phenyl)-3-(3,4-dimethoxyphenyl)propyl (S)-1-((S)-2-(3,4,5-trimethoxyphenyl)butanoyl)piperidine-2-carboxylate]: in test [1], the “efficacy as O-GlcNAcylation inducer” value is “submicromolar efficacy” and the “region of induced HTN-BRD4 O-GlcNAcylation” value was “C-terminal region (S1367-F1224)”. The “time at which O-GlcNAcylation of HTN-BRD4 was induced” value in test [1] (640 nM) was no more than 2 h. For the same compound, in test [1] (640 nM, longest time point), the “time of peak induction of HTN-BRD4 O-GlcNAcylation” value is on record as 24 h. The “lowest concentration promoting BRD4 O-GlcNAcylation and ternary complex” value in test [1] (4 h, 3 nM conducted once) was 3 nM. The “O-GlcNAcylation inducing effect on HTN-BRD4” value in test [1] (HTN-BRD4:fOGT=1:0.01 system) is reported as “No O-GlcNAcylation inducing effect”. Further, in test [2] (0tfOGT:HTN-BRD4 system), the “global O-GlcNAc level” value is “without disruption of global O-GlcNAc level”. In addition, in test [2] (HTN-BRD4:0tfOGT, washout study), the “global O-GlcNAc levels during reversibility study” value is listed as “remained unchanged”.

Regarding `CC[C@H](C(=O)N1CCCC[C@H]1C(=O)O[C@H](CCc1ccc(OC)c(OC)c1)c1cccc(OCC(=O)NCCOCCOCCCCCCCl)c1)c1cc(OC)c(OC)c(OC)c1` [OGTAC-1, (R)-1-(3-(2-((2-(2-((6-chlorohexyl)oxy)ethoxy)ethyl)amino)-2-oxoethoxy)phenyl)-3-(3,4-dimethoxyphenyl)propyl (S)-1-((S)-2-(3,4,5-trimethoxyphenyl)butanoyl) piperidine-2-carboxylate], in test [1], the “efficacy as O-GlcNAcylation inducer” value was “submicromolar efficacy” and the “region of induced HTN-BRD4 O-GlcNAcylation” value is “C-terminal region (S1367-F1224)”. Besides, in test [1] (640 nM, 2 h), the “fold increase of RL2 signal of BRD4” value came out at 2.5 fold. The “fold increase of RL2 signal of BRD4” value in test [1] (640 nM, 4 h) was “around 2.8 fold”. In test [1] (5 μM, 4 h), the “HTN-BRD4 O-GlcNAcylation inducing potency” value is recorded as “best O-GlcNAcylation inducing potency among three OGTACs; also recorded: outstanding potency”. Also, the “concentration from which inducing effect declined (hook effect)” value in test [1] (4 h) is 1.6 µM. Besides, the “O-GlcNAcylation level of endogenous CK2α” value in test [3] is given as “did not alter”. Moreover, in test [2] (125 nM, HTN-CK2α:fOGT=1:0.01), the “cellular global O-GlcNAc level” value was “not significantly changed”. Besides, in test [2] (HTN-BRD4:fOGT system, dose-response, 4 h), the pan-RL2 level result is “not affected”. In test [4], the “HTN-CK2α O-GlcNAcylation in mass-shift assay” value is “increased HTN-CK2α O-GlcNAcylation”.
